# Like-named read-outs stand apart in the source and are kept apart here.
# Biological target: T1, human Nav1.1 (Homo sapiens, UniProt P35498)
# T1 construct: host or cells: HEK293
# Assay: Amplification of Nav1.1-derived voltage-gated sodium current (Nav1.1 current), automated patch clamp (Test 1)
# Assay type: cell-based
# Outline: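 Compound-induced change in ramp-evoked sodium current peak and AUC was expressed as 100×post/pre ratio minus 100. Recordings used automated patch clamp in voltage-clamp mode on a stable human Nav1.1 HEK293 line, including only cells above 500 pA. Compounds were delivered in extracellular fluid containing 1% DMSO.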
# [1] = Concentration for evaluation 1 μM, HEK293 cell line stably expressing human Nav1.1
# [2] = Concentration for evaluation 3 μM, HEK293 cell line stably expressing human Nav1.1
# [3] = Concentration for evaluation 10 μM, HEK293 cell line stably expressing human Nav1.1
# [4] = concentration for evaluation 1 μM, HEK293 stably expressing human Nav1.1
# [5] = HEK293, Concentration for evaluation 1 μM, HEK293 cell line stably expressing human Nav1.1, read-out: Nav1.1 current amplification rate (%)
# [6] = HEK293, concentration for evaluation 1 μM, HEK293 stably expressing human Nav1.1, read-out: Nav1.1 current amplification rate (%)
# [7] = Concentration for evaluation 50 μM, HEK293 cell line stably expressing human Nav1.1
# [8] = HEK293, concentration for evaluation 10 μM, HEK293 stably expressing human Nav1.1, read-out: Nav1.1 current amplification rate (%)
smiles,measurement,setting,value
CN(c1cnc2cnn(CC(=O)Nc3cnc4ccccc4c3)c2n1)C1CC1 [Example 719],Nav1.1 current amplification rate (%),[1],78%
CC1CC=C(c2ccc(=O)n(CC(=O)N3CCc4c(OCC(C)(C)O)cccc43)n2)CC1 (stereo not drawn) [Example 307],Nav1.1 current amplification rate (%),[2],320%
O=C(Cn1nc(N2CCCCC2)ccc1=O)Nc1ccc(C(F)(F)F)nc1 [Example 104],activation at 10 µM,"HEK293, Concentration for evaluation 10 μM, HEK293 cell line stably expressing human Nav1.1, read-out: Nav1.1 current amplification rate (%)",11%
CC1CC=C(c2ccc(=O)n(CC(=O)N3CCc4c(C5CN(C(=O)C(C)(C)O)C5)cccc43)n2)CC1 (stereo not drawn) [Example 306],Nav1.1 current amplification rate (%),[2],532%
COC1CN(Cc2cccc3c2CCN3C(=O)Cn2nc(C3=CCC(C)CC3)ccc2=O)C1 (stereo not drawn) [Example 274],Nav1.1 current amplification rate (%),[1],60%
CC1(C)CCC=C(c2ccc(=O)n(CC(=O)Nc3ccc(C#N)cc3)n2)C1 [Example 45],Nav1.1 current amplification rate (%),[3],202%
CC(C)c1ccc(NC(=O)Cn2ncc3cnc(N4CCC5(CC5)C(F)(F)C4)nc32)cn1 [Example 829],Nav1.1 current amplification rate (%),[4],54%
CC1CC=C(c2ccc(=O)n(CC(=O)N3CCc4c3ccnc4-c3cccnc3)n2)CC1 (stereo not drawn) [Example 297],Nav1.1 current amplification rate (%),[1],151%
Cc1nccn1-c1cccc(NC(=O)Cn2nc(N3CCC(C)CC3)ccc2=O)c1 [Example 75],Nav1.1 current amplification rate (%),[3],15%
CN(c1cnc2cnn(CC(=O)N3CC=C(c4cccnc4)CC3)c2n1)C1CC1 [Example 700],Nav1.1 current amplification rate (%),[2],13%
CC1CC=C(c2ccc(=O)n(CC(=O)N3CCc4c(C5CN(CCO)C5)cccc43)n2)CC1 (stereo not drawn) [Example 303],Nav1.1 current amplification rate (%),[2],67%
CC1CC(C)CN(c2ccc(=O)n(CC(=O)Nc3ccc(C#N)cc3)n2)C1 (stereo not drawn) [Example 14],Nav1.1 current amplification rate (%),[3],9%
CC1CC=C(c2ccc(=O)n(CC(=O)N3CCN(c4ccncc4)CC3)n2)CC1 (stereo not drawn) [Example 261],Nav1.1 current amplification rate (%),[3],60%
O=C(Cn1ncc2ncc(N3CCC4(CC4)C(F)(F)C3)nc21)Nc1ccn2ccnc2c1 [Example 744],activation at 1 µM,[5],147%
O=C(Cn1ncc2cnc(N3CCC4(CCC4)CC3)nc21)NC1=CC2N=CN=CC2C=C1 (stereo not drawn) [Example 885],activation at 1 µM,[6],209%
Cc1cc(NC(=O)Cn2ncc3ncc(N(C)C4CCCC4)nc32)cn2ncnc12 [Example 677],Nav1.1 current amplification rate (%),[1],35%
Cc1ncc(-c2cccc3c2CCN3C(=O)Cn2nc(C3=CCC(C)CC3)ccc2=O)cn1 (stereo not drawn) [Example 264],Nav1.1 current amplification rate (%),[2],597%
Cc1cccc(F)c1Nc1ncc2cnn(CC(=O)Nc3ccn4ncnc4c3)c2n1 [Example 775],Nav1.1 current amplification rate (%),[7],12%
COc1cc(=O)n(CC(=O)Nc2ccc3ocnc3c2)nc1C1=CCC(C(F)(F)F)CC1 (racemic) [Example 450],Nav1.1 current amplification rate (%),[3],187%
CC1CC=C(c2ccc(=O)n(CC(=O)N3CCc4c(-c5ccnn5C)cccc43)n2)CC1 (stereo not drawn) [Example 251],Nav1.1 current amplification rate (%),[2],307%
CN(c1cnc2cnn(CC(=O)Nc3ccn4ccnc4c3)c2n1)C1CCCC1 [Example 670],Nav1.1 current amplification rate (%),[1],77%
CN(c1ccc2cnn(CC(=O)Nc3cnc4cccnc4c3)c2n1)C1CC1 [Example 888],activation at 1 µM,[6],101%
N#Cc1cnc(NC(=O)Cn2ncc3ncc(N4CCC5(CC5)C(F)(F)C4)nc32)cn1 [Example 754],activation at 1 µM,[5],14%
CC1(C)CC=C(c2ccc(=O)n(CC(=O)N3CCC4(CCOCC4)CC3)n2)CC1 [Example 441],Nav1.1 current amplification rate (%),[3],30%
CC(C1CCC1)N(C)c1cnc2cnn(CC(=O)Nc3ccn4ncnc4c3)c2n1 (stereo not drawn) [Example 634],Nav1.1 current amplification rate (%),[1],13%
CC1(C)CCN(c2ccc(=O)n(CC(=O)Nc3ccc(C#N)cc3)n2)C1 [Example 21],Nav1.1 current amplification rate (%),[3],130%
CN(c1ncc2cnn(CC(=O)Nc3ccn4ncnc4c3)c2n1)C1CCC1 [Example 797],Nav1.1 current amplification rate (%),[4],66%
CN(c1ccc2cnn(CC(=O)N3CCc4c(C5CC5)cccc43)c2n1)C1CC1 [Example 887],activation at 0.3 µM,"HEK293, concentration for evaluation 0.3 μM, HEK293 stably expressing human Nav1.1, read-out: Nav1.1 current amplification rate (%)",173%
C[C@H]1CC[C@@H](c2ccc(=O)n(CC(=O)Nc3ccc(C#N)cc3)n2)CC1 [Example 44],Nav1.1 current amplification rate (%),[3],59%
CN(c1cnc2cnn(CC(=O)Nc3ccc4oc(C(F)F)nc4c3)c2n1)C1CCCC1 [Example 678],Nav1.1 current amplification rate (%),[1],132%
CC1CCN(c2ccc(=O)n(CC(=O)Nc3ccc4ncoc4c3)n2)CC1 [Example 73],Nav1.1 current amplification rate (%),[3],92%
CCC1(C)CCN(c2ncc3cnn(CC(=O)Nc4ccn5ncnc5c4)c3n2)CC1 [Example 789],Nav1.1 current amplification rate (%),[1],36%
O=C(Cn1ncc2ccc(N3CCC4(CCC4)CC3)nc21)Nc1ccn2ncnc2c1 [Example 854],Nav1.1 current amplification rate (%),[4],45%
CN1CCN(c2cccc3c2CCN3C(=O)Cn2ncc3ncc(N(C)C4CC4)nc32)CC1 [Example 716],Nav1.1 current amplification rate (%),[1],45%
Cc1nc2cc(NC(=O)Cn3nc(N4CCC(C)CC4)ccc3=O)ccc2o1 [Example 69],Nav1.1 current amplification rate (%),[3],137%
COCC1(N(C)c2cnc3cnn(CC(=O)Nc4ccn5ncnc5c4)c3n2)CC1 [Example 629],Nav1.1 current amplification rate (%),[2],15%
CC1CC=C(c2ccc(=O)n(CC(=O)Nc3cncc(C4=CCN(C)C4)c3)n2)CC1 (stereo not drawn) [Example 367],Nav1.1 current amplification rate (%),[1],38%
Cc1cc(NC(=O)Cn2nc(C3=CCC(C)CC3)ccc2=O)cn2ncnc12 (stereo not drawn) [Example 349],Nav1.1 current amplification rate (%),[1],101%
CN(c1cnc2cnn(CC(=O)N3CCc4cc(N5CCOCC5)ccc43)c2n1)C1CC1 [Example 705],Nav1.1 current amplification rate (%),[1],54%
CC1CCN(c2ccc(=O)n(CC(=O)Nc3ccc(C(=O)N4CCCC4)cc3)n2)CC1 [Example 79],Nav1.1 current amplification rate (%),[3],165%
O=C(Cn1ncc2ccc(-c3ccc(F)cc3)nc21)Nc1ccn2ccnc2c1 [Example 866],Nav1.1 current amplification rate (%),[4],16%
"O=C(Cn1ncc2cnc(OCCC3CC3)nc21)Nc1ccn2ncnc2c1 [Example 762, 2-[6-(2-Cyclopropylethoxy)-1H-pyrazolo[3,4-d]pyrimidin-1-yl]-N-([1,2,4]triazolo[1,5-a]pyridin-7-yl)acetamide]",activation at 50 µM,"HEK293, Concentration for evaluation 50 μM, HEK293 cell line stably expressing human Nav1.1, read-out: Nav1.1 current amplification rate (%)",37%
O=C(Cn1ncc2ncc(C3=CCC4(CC3)CC4(F)F)nc21)Nc1ccc2ncnn2c1 (stereo not drawn) [Example 660],Nav1.1 current amplification rate (%),[1],64%
CC1CC=C(c2ccc3cnn(CC(=O)Nc4ccc5ocnc5c4)c3n2)CC1 (stereo not drawn) [Example 883],activation at 1 µM,[6],164%
CN(c1cnc2cnn(CC(=O)N3CCc4c(C5=CCOCC5)cccc43)c2n1)C1CCC1 [Example 688],Nav1.1 current amplification rate (%),[1],201%
Cc1ccc(-c2ccc(=O)n(CC(=O)N3CCc4cnccc43)n2)cc1 [Example 159],Nav1.1 current amplification rate (%),[3],32%
CC1CC=C(c2ccc3cnn(CC(=O)N4CCN(c5cccnc5)CC4)c3c2)CC1 (stereo not drawn) [Example 893],activation at 10 µM,[8],31%
N#Cc1ccc(NC(=O)Cn2nc(C3CCCCC3)ccc2=O)cc1 [Example 40],Nav1.1 current amplification rate (%),[3],20%
O=C(Cn1nc(-c2cc(Cl)cs2)ccc1=O)Nc1ccn2ccnc2c1 [Example 467],Nav1.1 current amplification rate (%),[1],80%
CN(c1cnc2cnn(CC(=O)Nc3ccn4ncnc4c3)c2n1)C1CCC(F)(F)C1 (stereo not drawn) [Example 628],Nav1.1 current amplification rate (%),[1],14%
COCCCN1CC2(CCN(C(=O)Cn3nc(C4=CCC(C)CC4)ccc3=O)C2)C1 (stereo not drawn) [Example 308],Nav1.1 current amplification rate (%),[7],9%
CC1CC(N(C)c2cnc3cnn(CC(=O)Nc4ccn5ncnc5c4)c3n2)C1 (stereo not drawn) [Example 635],Nav1.1 current amplification rate (%),[1],76%
COc1cncc(NC(=O)Cn2nc(N3CCC(C)CC3)ccc2=O)c1 [Example 64],Nav1.1 current amplification rate (%),[3],11%
CC1CC=C(c2ccc(=O)n(CC(=O)N3CCc4c(C5CCN(C)C5)cccc43)n2)CC1 (stereo not drawn) [Example 269],Nav1.1 current amplification rate (%),[2],127%
Cc1nc2cc(NC(=O)Cn3ncc4ncc(N(C)C5CCCC5)nc43)ccc2o1 [Example 675],Nav1.1 current amplification rate (%),[1],36%
CN(c1cnc2cnn(CC(=O)Nc3ccc(C#N)nc3)c2n1)C1CCCC1 [Example 683],Nav1.1 current amplification rate (%),[1],63%
CC1CC=C(c2ccc(=O)n(CC(=O)N3CC=C(c4ccccn4)CC3)n2)CC1 (stereo not drawn) [Example 420],Nav1.1 current amplification rate (%),[3],39%
CC1CC=C(c2ccc3cnn(CC(=O)Nc4ccn5ccnc5c4)c3c2)CC1 (stereo not drawn) [Example 894],activation at 10 µM,[8],151%
CN(CCC1CC1)c1cnc2cnn(CC(=O)Nc3ccc4cncnc4c3)c2n1 [Example 647],Nav1.1 current amplification rate (%),[1],165%
CC1CC=C(c2ccc(=O)n(CC(=O)Nc3ccc(C4=CCN(C)C4)nc3)n2)CC1 (stereo not drawn) [Example 374],Nav1.1 current amplification rate (%),[3],18%
CN(CC1(C)CC1)c1cnc2cnn(CC(=O)Nc3cnc4cccnc4c3)c2n1 [Example 760],activation at 1 µM,[5],104%
CC1(C)CC=C(c2ccc(=O)n(CC(=O)Nc3ccc(C#N)cc3)n2)CC1 [Example 42],Nav1.1 current amplification rate (%),[3],216%
Cc1c(N2CCC(C)CC2)nn(CC(=O)Nc2ccc(C#N)cc2)c(=O)c1C [Example 35],Nav1.1 current amplification rate (%),[3],301%
O=C(Cn1nc(-c2cc(Cl)cs2)ccc1=O)Nc1ccc2ocnc2c1 [Example 454],Nav1.1 current amplification rate (%),[3],157%
CC1CC=C(c2ccc(=O)n(CC(=O)N3CCc4c(CN5CC=CC5)cccc43)n2)CC1 (stereo not drawn) [Example 287],Nav1.1 current amplification rate (%),[1],73%
CN(CC1CCCC1)c1cnc2cnn(CC(=O)Nc3ccn4ncnc4c3)c2n1 [Example 626],Nav1.1 current amplification rate (%),[1],200%

# Source: patent US20230109839A1, “THERAPEUTIC AGENT FOR TAUOPATHIES” (SUMITOMO PHARMA CO., LTD., priority 2020, published 2023)
